Results: patent US20240345008A1 (Eth Zurich, priority 2021, published 2024)
No end group written: not given here.

Tests used:
K-Ras protein = K-Ras protein (Homo sapiens, UniProt P01116); assay: photo-CIDNP enhanced NMR ligand-target binding with spinlock, small molecules vs K-Ras protein; conditions: 500 μM ligand, 25 μM fluorescein, 100 μM K-Ras, 450 nm, 1 W, 2 s, spinlock 200 ms
[1] = target: PIN1 protein (peptidyl-prolyl cis-trans isomerase NIMA-interacting 1) (Homo sapiens, UniProt Q13526); assay: photo-CIDNP enhanced NMR ligand-target binding, small molecules vs PIN1 protein; conditions: 100 μM ligand, 25 μM fluorescein, 50 μM PIN1 (ligand 3-4: 25 μM ligand, 15 μM fluorescein, 25 μM PIN1), 450 nm, 1 W, 2 s
PIN1 protein = PIN1 protein (Homo sapiens, UniProt Q13526); assay: prior knowledge / verification of PIN1 binding (Potter et al. 2010; verification); conditions: method of verification not stated
PDZ protein domain [2] = assay: photo-CIDNP enhanced NMR ligand-target binding, peptides vs PDZ protein domain (sample A vs B); conditions: 100 μM peptide, 25 μM fluorescein, PDZ 100 μM, 450 nm, 1 W, 4 s, no spin lock
PDZ protein domain [3] = assay: photo-CIDNP NMR titration for dissociation constant of peptide ligand to PDZ protein domain; format: binding; conditions: 47 μM peptide, 25 μM fluorescein, series of PDZ concentrations and irradiation times, 450 nm, fit of equations (7) and (6)
PDZ protein domain [4] = assay: photo-CIDNP enhanced 1H NMR titration, 47 µM peptide against a series of PDZ domain concentrations, fit of equations (7) and (6)

PIN1 protein (peptidyl-prolyl cis-trans isomerase NIMA-interacting 1), sequence (Q13526 whole entry, species assumed): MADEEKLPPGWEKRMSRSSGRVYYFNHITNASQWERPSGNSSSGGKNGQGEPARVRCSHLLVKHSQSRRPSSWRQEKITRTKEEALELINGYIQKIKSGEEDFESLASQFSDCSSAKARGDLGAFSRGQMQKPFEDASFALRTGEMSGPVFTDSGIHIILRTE
PIN1 protein, sequence (Q13526 whole entry, species assumed, the tested form may be a part): as the sequence (Q13526 whole entry, species assumed) above

With “5 N-(Furan-2-ylmethyl)-1H-benzimidazol-2-amine)-imidazole-4-carboxylic acid [ligand 4-1]” the “binding to the target K-Ras (signal modified in presence of target)” value (“binding to the target K-Ras” below) (K-Ras protein) was “bound to the target K-Ras”.

In the case of Cc1cccc(-c2nc(C(=O)O)c(C)[nH]2)c1 [ligand 3-1, 5-methyl-2-(3-methylphenyl)-imidazole-4-carboxylic acid], the “binding to the target PIN1 (signal modified in presence of target)” value (shortened to “binding to the target PIN1”) [1] is reported as “bound to the target PIN1”.

Cc1ccc2[nH]cc(C(=O)O)c2c1 [ligand 3-2, 5-methyl-indole-3-carboxylic acid] was tested, and the “binding to the target PIN1” value [1] was “bound to the target PIN1”.

For N[C@@H](Cc1c[nH]c2ccccc12)C(=O)O [ligand 3-3, tryptophan], the “binding to the target PIN1” value [1] was “did not bind” and the “verification of binding to PIN1” value (PIN1 protein) was “verified to not bind to PIN1”.

In the case of O=C1NCCCc2c1oc1ccc(O)cc21 [ligand 3-4, 4-hydroxy-8-oxa-11-azatricyclo[7.5.0.0^2,7]tetradeca-1 (9),2,4,6-tetraen-10-one], the “binding to the target PIN1” value [1] is reported as “bound to the target PIN1”.

For COc1ccc(C)cc1NC(=O)Nn1cnnc1 [ligand 4-3, N-(2-methoxy-5-methylphenyl)-N′-4H-1,2,4-triazol-4-ylurea], the “binding to the target K-Ras” value (K-Ras protein) was “bound to the target K-Ras”.

For O=C(O)Cc1c[nH]c2ccccc12 [ligand 4-4, indoleacetic acid], the “binding to the target K-Ras” value (K-Ras protein) was “did not bind”.

With WEQLT (Peptide 3) the “binding to the target PDZ (signal modified in presence of target)” value (PDZ protein domain [2]) was “did not bind”.

For WVSAV [Peptide 1], the “binding to the target PDZ (signal modified in presence of target)” value (PDZ protein domain [2]) was “binding to the target PDZ” and the Kd (PDZ protein domain [3]) was 7 µM.

In the case of WVSAV-NH2 [Peptide 4], the “binding to the target PDZ (signal modified in presence of target)” value (PDZ protein domain [2]) is reported as “did not bind”.

In the case of WVSAV [Peptide 1 (WVSAV)], the Kd (PDZ protein domain [4]) is reported as 7 µM.
